{"source": "patent US9422302B2", "about": "(priority 2013, dated 2016)", "key": {"Male, Swiss-Webster mice [1]": {"test_system": "Male, Swiss-Webster mice", "experiment": "Hot plate antinociceptive testing (acute, antagonist and tolerance paradigms)", "assay_type": "in vivo", "settings": "for Effect of antagonist pretreatment on UMB 425 antinociception, hot plate: naloxone 1 mg/kg i.p. −30 min or nor-BNI 30 mg/kg i.p. −24 h before UMB 425 15 mg/kg s.c., 30 min; for Antinociceptive tolerance development vs. Day 1, hot plate: 15 mg/kg s.c. twice daily for five days, latencies 30 min after administration; for ED50: Mus musculus, sc"}, "Male, Swiss-Webster mice [2]": {"test_system": "Male, Swiss-Webster mice", "experiment": "Tail-flick antinociceptive testing (acute, antagonist and tolerance paradigms)", "assay_type": "in vivo", "settings": "for Effect of antagonist pretreatment on UMB 425 antinociception, tail-flick: naloxone 1 mg/kg i.p. −30 min or nor-BNI 30 mg/kg i.p. −24 h before UMB 425 15 mg/kg s.c., 30 min; for Antinociceptive tolerance development vs. Day 1, tail-flick: 15 mg/kg s.c. twice daily for five days, latencies 30 min after administration; for ED50: Mus musculus, sc"}, "δ receptor": {"target": "δ receptor (Rattus norvegicus, UniProt P33533)", "sequence (P33533 whole entry)": "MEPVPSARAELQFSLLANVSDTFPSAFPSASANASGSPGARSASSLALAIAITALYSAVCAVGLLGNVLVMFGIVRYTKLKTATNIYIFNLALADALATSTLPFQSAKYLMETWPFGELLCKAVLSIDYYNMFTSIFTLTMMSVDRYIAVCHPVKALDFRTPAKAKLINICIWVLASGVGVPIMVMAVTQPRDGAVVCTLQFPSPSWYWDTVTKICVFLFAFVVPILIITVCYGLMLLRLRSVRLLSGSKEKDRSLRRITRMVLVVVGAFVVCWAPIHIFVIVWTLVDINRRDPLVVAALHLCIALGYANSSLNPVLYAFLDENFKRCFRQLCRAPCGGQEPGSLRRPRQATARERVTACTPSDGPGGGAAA", "settings": "cited from earlier work"}, "human δ opioid receptor [3]": {"target": "T1, human δ opioid receptor (Homo sapiens, UniProt P41143)", "T1 sequence (P41143 whole entry)": "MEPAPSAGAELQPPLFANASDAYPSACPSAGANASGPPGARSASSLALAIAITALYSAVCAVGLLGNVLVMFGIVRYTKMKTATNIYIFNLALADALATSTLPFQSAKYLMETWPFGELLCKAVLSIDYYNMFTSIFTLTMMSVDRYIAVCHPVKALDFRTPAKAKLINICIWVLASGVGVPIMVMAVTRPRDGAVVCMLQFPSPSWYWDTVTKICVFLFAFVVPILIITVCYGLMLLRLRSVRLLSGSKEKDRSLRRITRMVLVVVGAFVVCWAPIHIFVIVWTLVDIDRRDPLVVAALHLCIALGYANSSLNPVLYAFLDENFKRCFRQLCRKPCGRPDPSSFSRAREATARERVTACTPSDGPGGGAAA", "settings": "ref (32); cited from earlier work"}, "human μ opioid receptor [4]": {"target": "T2, human μ opioid receptor (Homo sapiens, UniProt P35372)", "T2 construct": "expressed in transfected cells; host or cells: CHO cells (membranes)", "T2 sequence (P35372 whole entry)": "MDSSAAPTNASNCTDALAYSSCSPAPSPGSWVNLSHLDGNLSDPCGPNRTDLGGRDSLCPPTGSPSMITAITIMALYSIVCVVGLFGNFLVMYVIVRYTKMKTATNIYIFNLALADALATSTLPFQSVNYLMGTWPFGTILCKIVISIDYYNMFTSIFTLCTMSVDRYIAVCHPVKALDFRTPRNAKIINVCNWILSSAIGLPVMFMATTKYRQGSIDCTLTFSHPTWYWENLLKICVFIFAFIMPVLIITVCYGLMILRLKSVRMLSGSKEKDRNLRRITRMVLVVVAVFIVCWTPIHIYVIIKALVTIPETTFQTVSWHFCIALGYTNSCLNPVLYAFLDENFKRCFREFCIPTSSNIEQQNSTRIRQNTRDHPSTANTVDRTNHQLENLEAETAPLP", "experiment": "biochemical", "assay_type": "binding"}, "human κ opioid receptor [5]": {"target": "T3, human κ opioid receptor (Homo sapiens, UniProt P41145)", "T3 construct": "expressed in transfected cells; host or cells: CHO cells (membranes)", "T3 sequence (P41145 whole entry)": "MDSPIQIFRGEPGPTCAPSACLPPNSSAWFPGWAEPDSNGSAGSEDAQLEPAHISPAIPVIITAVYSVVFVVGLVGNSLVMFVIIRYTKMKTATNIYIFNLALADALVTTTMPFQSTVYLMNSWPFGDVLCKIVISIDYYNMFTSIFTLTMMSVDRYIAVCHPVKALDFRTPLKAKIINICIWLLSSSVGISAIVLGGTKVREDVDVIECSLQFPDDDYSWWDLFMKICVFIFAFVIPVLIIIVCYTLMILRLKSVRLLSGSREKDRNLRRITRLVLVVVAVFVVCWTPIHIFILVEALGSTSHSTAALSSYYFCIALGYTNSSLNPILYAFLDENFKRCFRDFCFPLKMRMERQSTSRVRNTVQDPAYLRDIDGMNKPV", "experiment": "biochemical", "assay_type": "binding"}, "human μ opioid receptor [6]": {"target": "T2, human μ opioid receptor", "experiment": "biochemical"}, "human κ opioid receptor [7]": {"target": "T3, human κ opioid receptor", "experiment": "[35S]GTPγS functional assay, hKOR-CHO membranes", "assay_type": "biochemical", "settings": "CHO cell membranes, n/e=no effect"}, "human δ opioid receptor [8]": {"target": "T1, human δ opioid receptor", "experiment": "Opioid receptor binding, [3H]DPDPE competition in hDOR-CHO membranes", "design": "expressed in transfected cells; host or cells: CHO cells (membranes)"}, "human δ opioid receptor [9]": {"target": "T1, human δ opioid receptor", "experiment": "[35S]GTPγS functional assay, hDOR-CHO membranes (agonism; antagonism of DPDPE, Schild plot)", "assay_type": "biochemical", "design": "expressed in transfected cells; host or cells: CHO cells (membranes)"}, "[10]": {"settings": "0.5 h, read-out: ED50 Hot Plate, acute treatment paradigm"}, "[11]": {"settings": "read-out: ED50 Hot Plate, Tolerance"}, "[12]": {"settings": "acute vs. tolerance treatment paradigms"}, "[13]": {"settings": "0.5 h, read-out: ED50 Tail-Flick, acute treatment paradigm"}, "[14]": {"settings": "read-out: ED50 Tail-Flick, Tolerance"}}, "data": [{"smiles": "C=CCN1CC[C@]23c4c5ccc(O)c4O[C@H]2C(=O)CC[C@@]3(O)[C@H]1C5", "note": "[naloxone, reference compound]", "values": [{"measurement": "Effect of antagonist pretreatment on UMB 425 antinociception, hot plate", "setting": "Male, Swiss-Webster mice [1]", "result": "significantly attenuated UMB 425-mediated antinociception"}, {"measurement": "Effect of antagonist pretreatment on UMB 425 antinociception, tail-flick", "setting": "Male, Swiss-Webster mice [2]", "result": "significantly attenuated UMB 425-mediated antinociception"}]}, {"smiles": "O=C1/C(=C/c2ccccc2)C[C@@]2(O)[C@H]3Cc4ccc(O)c5c4[C@@]2(CCN3CC2CC2)[C@H]1O5", "note": "[(E)-BNTX, (E)-benzylidenenaltrexone]", "values": [{"measurement": "Relative % Emax Experimental", "setting": "δ receptor", "result": 0.00}]}, {"smiles": "Oc1ccc2c3c1O[C@H]1c4[nH]c5ccccc5c4C[C@@]4(O)[C@@H](C2)N(CC2CC2)CC[C@]314", "note": "[Naltrindole]", "values": [{"measurement": "Relative % Emax Experimental", "setting": "δ receptor", "result": 0.00}, {"measurement": "pA2 δ (literature)", "setting": "human δ opioid receptor [3]", "result": 10.92}]}, {"smiles": "CN1CC[C@]23c4c5ccc(O)c4O[C@H]2c2[nH]c4ccccc4c2C[C@@]3(O)[C@H]1C5", "note": "[Oxymorphindole]", "values": [{"measurement": "Relative % Emax Experimental", "setting": "δ receptor", "result": 0.12}]}, {"smiles": "CN1CC[C@]23c4c5ccc(O)c4O[C@H]2C(=O)C2(Cc4ccccc4C2)C[C@@]3(O)[C@H]1C5", "note": "[SIOM, 7-spiroindanyloxymorphone]", "values": [{"measurement": "Relative % Emax Experimental", "setting": "δ receptor", "result": 0.18}]}, {"smiles": "CN1CCC23c4c5ccc(O)c4OC2(CO)C(=O)CCC3(O)C1C5", "note": "(stereo not drawn) [UMB 425, 4a,9-dihydroxy-7a-(hydroxymethyl)-3-methyl-2,3,4,4a,5,6-hexahydro-1H-4,12-methanobenzofuro[3,2-e]isoquinolin-7(7aH)-one]", "values": [{"measurement": "Ki", "setting": "human μ opioid receptor [4]", "result": "3.2 ± 0.14", "unit": "nM"}, {"measurement": "Ki", "setting": "human κ opioid receptor [5]", "result": "212 ± 21", "unit": "nM"}, {"measurement": "κ/μ binding affinity ratio", "setting": "human κ opioid receptor [5]", "result": 66}, {"measurement": "% Emax μ", "setting": "human μ opioid receptor [6]", "result": "73±7.3", "unit": "%"}, {"measurement": "EC50", "setting": "human μ opioid receptor [6]", "result": "35 ± 3.7", "unit": "nM"}, {"measurement": "Emax", "setting": "human μ opioid receptor [6]; read-out: % Emax ± S.E.M. μ", "result": "73 ± 7.3", "unit": "%"}, {"measurement": "EC50 ± S.E.M. κ (agonist activity)", "setting": "human κ opioid receptor [7]", "result": "no significant agonist activity and n/e"}, {"measurement": "Antinociceptive tolerance development vs. Day 1, hot plate", "setting": "Male, Swiss-Webster mice [1]", "result": "significantly decreased antinociceptive activity on Day 4 and 5"}, {"measurement": "Antinociceptive activity compared with morphine in tolerance paradigm, hot plate", "setting": "Male, Swiss-Webster mice [1]; Day 4 and 5, 15 mg/kg s.c. twice daily", "result": "statistically greater antinociceptive activity than morphine"}, {"measurement": "ED50", "setting": "Male, Swiss-Webster mice [1]; [10]", "result": 4.3, "unit": "mg/kg"}, {"measurement": "ED50", "setting": "Male, Swiss-Webster mice [1]; [11]", "result": 13, "unit": "mg/kg"}, {"measurement": "Shift in ED50, Hot Plate", "setting": "Male, Swiss-Webster mice [1]; [12]", "result": 3.0, "unit": "fold"}, {"measurement": "Reduction in ED50 shift compared to morphine, hot plate", "setting": "Male, Swiss-Webster mice [1]; tolerance paradigm", "result": 2.6, "unit": "fold"}, {"measurement": "Antinociceptive tolerance development vs. Day 1, tail-flick", "setting": "Male, Swiss-Webster mice [2]", "result": "n.s."}, {"measurement": "Antinociceptive activity compared with morphine in tolerance paradigm, tail-flick", "setting": "Male, Swiss-Webster mice [2]; Day 5, 15 mg/kg s.c. twice daily", "result": "statistically greater antinociceptive activity than morphine"}, {"measurement": "ED50", "setting": "Male, Swiss-Webster mice [2]; [13]", "result": 8.83, "unit": "mg/kg"}, {"measurement": "ED50", "setting": "Male, Swiss-Webster mice [2]; [14]", "result": 11.6, "unit": "mg/kg"}, {"measurement": "Shift in ED50, Tail-Flick", "setting": "Male, Swiss-Webster mice [2]; [12]", "result": 1.3, "unit": "fold"}, {"measurement": "Reduction in ED50 shift compared to morphine, tail-flick", "setting": "Male, Swiss-Webster mice [2]; tolerance paradigm", "result": 4.9, "unit": "fold"}, {"measurement": "Ki", "setting": "human δ opioid receptor [8]", "result": "208 ± 18", "unit": "nM"}, {"measurement": "δ/μ binding affinity ratio", "setting": "human δ opioid receptor [8]; ratio of Ki values", "result": 65}, {"measurement": "Kb", "setting": "human δ opioid receptor [9]", "result": 759, "unit": "nM"}, {"measurement": "pA2 δ", "setting": "human δ opioid receptor [9]; Schild plot, DPDPE dose-response curves with 200 nM, 600 nM, 2 μM UMB 425", "result": 6.12}, {"measurement": "EC50 ± S.E.M. δ (agonist activity)", "setting": "human δ opioid receptor [9]; [35S]GTPγS, CHO cell membranes, n/e=no effect", "result": "no significant agonist activity and n/e"}]}, {"smiles": "Oc1ccc2c3c1O[C@H]1c4[nH]c5c(c4C[C@@]4(O)[C@@H](C2)N(CC2CC2)CC[C@]314)C[C@@]1(O)[C@H]2Cc3ccc(O)c4c3[C@@]1(CCN2CC1CC1)[C@H]5O4", "note": "[nor-BNI, norbinaltorphimine, reference compound]", "values": [{"measurement": "Effect of antagonist pretreatment on UMB 425 antinociception, hot plate", "setting": "Male, Swiss-Webster mice [1]", "result": "failed to significantly attenuate UMB 425-mediated antinociception"}, {"measurement": "Effect of antagonist pretreatment on UMB 425 antinociception, tail-flick", "setting": "Male, Swiss-Webster mice [2]", "result": "failed to significantly attenuate UMB 425-mediated antinociception"}]}, {"smiles": "CN1CC[C@]23c4c5ccc(O)c4O[C@H]2[C@@H](O)C=C[C@H]3[C@H]1C5", "note": "[Morphine, reference compound]", "values": [{"measurement": "Antinociceptive tolerance development vs. Day 1, hot plate", "setting": "Male, Swiss-Webster mice [1]", "result": "significantly decreased antinociceptive activity on Day 4 and 5"}, {"measurement": "ED50", "setting": "Male, Swiss-Webster mice [1]; [10]", "result": 2.73, "unit": "mg/kg"}, {"measurement": "ED50", "setting": "Male, Swiss-Webster mice [1]; [11]", "result": 21.3, "unit": "mg/kg"}, {"measurement": "Antinociceptive tolerance development vs. Day 1, tail-flick", "setting": "Male, Swiss-Webster mice [2]", "result": "significantly decreased antinociceptive activity on Day 4 and 5"}, {"measurement": "ED50", "setting": "Male, Swiss-Webster mice [2]; [13]", "result": 6.85, "unit": "mg/kg"}, {"measurement": "ED50", "setting": "Male, Swiss-Webster mice [2]; [14]", "result": 44.1, "unit": "mg/kg"}]}]}
